From patent US20210340629A1, “BIOMARKERS FOR CANCER THERAPY” (The Council of the Queensland Institute of Medical Research, priority 2018, published 2021)

How the values were obtained:
[1] = system: normal melanocytes; experiment: Cell viability by MTT assay, normal melanocytes; type: cell-based; conditions: 5 μM, 48 hours, FIG. 2
Experimental: UNC0642 was purchased from Sigma Aldrich. The panel of human melanoma cell lines, derived from cutaneous melanomas, is shown in Table 1 and the cells have all been previously described. Cells were maintained in Roswell Park Memorial Institute (RPMI) 1640 supplemented with 10% fetal bovine serum (FBS), 100 U/mL penicillin, and 100 µg/mL streptomycin in a humidified atmosphere of 5% CO2 at 37° C. Normal melanocytes were grown in Clonetics™ MGM™-4 Melanocyte Growth Medium-4 supplemented with CaCl2, phorbol-12-myristate 13-acetate (PMA), recombinant human fibroblast growth factor basic (rhFGF-B), recombinant human insulin (rh-insulin), hydrocortisone, bovine pituitary extract (BPE), FBS and GA-1000 (30 μg/ml Gentamycin and 15 ng/ml Amphotericin) (Lonza).
For proliferation studies, cells (5×10^3) were seeded in 96-place wells and allowed to adhere overnight, and incubated in fresh growth medium in the presence of either the G9a inhibitor UNC0642 (Sigma Aldrich) or the vehicle control DMSO (Sigma Aldrich). Proliferation was evaluated via real-time imaging using IncuCyte Zoom (Essen BioScience) and/or by performing a 3-(4,5-dimethylthiazol-2-yl)-2,5-diphenyltetrazolium bromide ([…]) assay. After monitoring the cells, 20 μL of MTT (5 mg/mL; Sigma-Aldrich) was added. […] The absorbance value (optical density) of each well was measured at 570 nm.

[2] = system: D05 and C008 melanoma cell lines; experiment: Proliferation by IncuCyte Zoom real time cell imaging, sensitive lines; type: cell-based, human
Experimental: Four cell lines were then chosen for further analysis. These were C006 (NRAS mt), C092 (Triple wt), C008 (NF1 mt) and D05 (BRAF mt). These four lines are representatives of the 4 cutaneous melanoma genomic subtypes and include 2 lines (C008 and D05) that were very sensitive to the inhibitor and 2 lines that were less sensitive (C006 and C092). Proliferation of these lines was evaluated by real time cell imaging using IncuCyte Zoom where cells were grown for 48 hours in the presence or absence of 5 μM UNC0642.
For proliferation studies, cells (5×10^3) were seeded in 96-place wells and allowed to adhere overnight, and incubated in fresh growth medium in the presence of either the G9a inhibitor UNC0642 (Sigma Aldrich) or the vehicle control DMSO (Sigma Aldrich). Proliferation was evaluated via real-time imaging using IncuCyte Zoom (Essen BioScience) and/or by performing a 3-(4,5-dimethylthiazol-2-yl)-2,5-diphenyltetrazolium bromide ([…]) assay. After monitoring the cells, 20 μL of MTT (5 mg/mL; Sigma-Aldrich) was added. The plates were incubated at 37° C. for 3 h before the supernatants were removed, and 100 μL of isopropanol was added to each well. The absorbance value (optical density) of each well was measured at 570 nm.

[3] = system: H3K9me2; experiment: Immunoblotting analysis of global H3K9me2; type: cell-based, human; conditions: D05 and C008 cell lines, as early as 8 hours and persisted to 24 hours, FIG. 3B
Experimental: For immunoblotting, protein whole cell lysates were prepared using RIPA lysis buffer containing 20 mM Tris, pH 8.0, 150 mM NaCl, 10% glycerol, 1% Nonidet P-40 containing protease inhibitor cocktail (Roche). Nuclear extracts were obtained using a standard high salt extraction buffer (20 mM HEPES (pH 7.9), 0.32 M NaCl, 1 mM EDTA, and 1 mM EGTA) supplemented with 1mM DU and protease inhibitor cocktail. Protein assays were performed according to the Bradford method using a protein assay kit (BioRad). […] of denatured proteins were separated using 10% sodium dodecyl sulfate-polyacrylamide gel electrophoresis (SDS-PAGE) and transferred to Polyvinylidene difluoride (PVDF) membranes. The membranes were blocked for 1 hour in 5% skim milk in Tris-buffered saline with Tween 20 (TBST; 10 mM Tris-HCl, 150 mM NaCl, 0.1% Tween 20). Immunoblotting was performed with primary anti G9a (#3306, Cell Signaling), H3K9me2 (ab 1220, Abcam), H3 (ab1791, Abcam) or Tubulin (ab6046, Abcam) and detected with either HRP-conjugated anti-rabbit (#7074, Cell Signaling Technology) or HRP-conjugated anti-mouse (#7076, Cell Signaling Technology). After applying ECL detection reagents (GE Healthcare), protein bands were visualized using X-ray film (Fujifilm).

[4] = system: D05 and C092 melanoma cell lines; experiment: Cell cycle analysis (flow cytometric analysis); type: cell-based, human; conditions: data not shown
[5] = system: MAP1LC3B; experiment: Quantitative real time PCR of MAP1LC3B expression in melanoma cell lines; type: cell-based, human; conditions: 24 hours
Experimental: Quantitative RT-PCR and ChIP assays were conducted as previously described (Lee et al. (2010) Mol Cell 39, 71-85). Briefly, total RNA was isolated from either the tumor cells or from xenografts using Trizol (Invitrogen) and reverse transcription was performed from 2 μg of total RNA using the Superscript III cDNA synthesis system (Invitrogen). The abundance of mRNA was detected by an ABI VIIA7 system with SYBR Green Master Mix (Life Technologies). Primer pairs were designed to amplify 90-150 bp mRNA specific fragments and were confirmed as unique products by melting curve analysis. The quantity of mRNA was calculated using the ΔΔCt method and normalized to HPRT. All reactions were performed in triplicates.

[6] = system: D20 melanoma cells; experiment: In vivo tumor growth analysis, D20 melanoma xenograft; design: species or system SCID mice; conditions: 5 mg/kg every two days for two weeks, vs vehicle control
Experimental: To determine the effect of inhibiting G9a on tumor growth, 6-8 week old SCID mice were subcutaneously injected with D20 BRAF mutant cutaneous melanoma cells. Palpable tumors were allowed to establish (approx. 10 days) before UNC0642 was administered at 5 mg/kg every two days for two weeks. The D20 cell line was used in the subcutaneous model as it had been shown previously to be tumorigenic in vivo and was also sensitive to the drug in vitro.
Groups of 8 SCID mice per treatment group were used for xenograft studies to ensure adequate power to detect biological differences. All experiments were approved by the QIMR Berghofer Medical Research Institute Animal Ethics Committee. D20 melanoma cells (2×106) were mixed 1:1 ratio with Growth factor-reduced Matrigel (BD Biosciences) and injected subcutaneously into the flank of 6-8 week old mice in 100 μL volume (day 0) and treatments, either DMSO or UNC0642 at 5 mg/kg were administered as indicated in the figure legends. Tumor volumes (width2×length/2) were measured using a digital calliper, and presented as mean±SD. All animals were sacrificed at the same time and the tumors were dissected for further analysis.

COc1cc2c(NC3CCN(C(C)C)CC3)nc(N3CCC(F)(F)CC3)nc2cc1OCCCN1CCCC1 [UNC0642]
survival of the normal melanocyte cell culture [1]: unaffected
proliferation ([2]; D05 and C008, 5 μM, 48 hours, compared to vehicle control, data not shown): significant reduction in proliferation
number of cells ([2]; over 48 hours treatment, 5 μM, FIG. 3A): significantly decreased
global H3K9me2 [3]: reduction
increase in preG1 population ([4]; C092 (less G9a inhibitor responsive) cell line): absent
cell cycle status ([4]; D05 and C092, flow cytometric analysis): neither D05 nor C092 showed any changes in cell cycle status
increase in cells in preG1 phase ([4]; G9a inhibitor responsive cells (D05)): greater than 4 fold
cells in both G1 and G2/M phases [4]: reduction
induction of MAP1LC3B expression ([5]; less sensitive cells (C006 and C092), no statistically significant difference to vehicle, FIG. 8): minimal
MAP1LC3B expression, induction compared to vehicle control ([5]; very sensitive lines (D05 and C008), P<0.05, FIG. 8): ~2 fold
tumor weight ([6]; end-point, P<0.01, FIG. 10B): statistically significantly reduced
tumor growth ([6]; intraperitoneally, P<0.05, FIG. 10A): statistically significantly reduced
